tested on: not listed separately; assay: Plasma clearance in cynomolgus monkey at 1 mg/kg, iv and 5 mg/kg, po; format: ADME, organism-based, Macaca fascicularis; details: not given

clearance [mL/min/kg]	Compound
2	CNC(=O)c1c(O)c2ncc(Cc3ccc(F)cc3)cc2n(C)c1=O

tested on: Human immunodeficiency virus; assay: Antiviral activity against HIV in presence of 40 mg/mL of purified human serum albumin; format: functional, organism-based; details: Human immunodeficiency virus 1

IC50 [nM]	Compound
40	Cn1c(=O)c(C(=O)NCCCO)c(O)c2ncc(Cc3ccc(F)cc3)cc21
35	COCCNC(=O)c1c(O)c2ncc(Cc3ccc(F)cc3)cc2[nH]c1=O
78	C[C@H](O)CNC(=O)c1c(O)c2ncc(Cc3ccc(F)cc3)cc2[nH]c1=O
256	CSCCNC(=O)c1c(O)c2ncc(Cc3ccc(F)cc3)cc2[nH]c1=O
180	Cn1c(=O)c(C(=O)NC2(CO)CCCC2)c(O)c2ncc(Cc3ccc(F)cc3)cc21
41	O=C(NCCCO)c1c(O)c2ncc(Cc3ccc(F)cc3)cc2[nH]c1=O
20	Cn1c(=O)c(C(=O)NCCO)c(O)c2ncc(Cc3ccc(F)cc3)cc21 [GSK-364735]
49	CN(CCNC(=O)c1c(O)c2ncc(Cc3ccc(F)cc3)cc2[nH]c1=O)S(C)(=O)=O
37	O=C(NCCCN1CCOCC1)c1c(O)c2ncc(Cc3ccc(F)cc3)cc2[nH]c1=O
55	CNC(=O)c1c(O)c2ncc(Cc3ccc(F)cc3)cc2n(C)c1=O

The next lines start with the molecule.

Compound	IC50 [nM]
C[C@H](CO)NC(=O)c1c(O)c2ncc(Cc3ccc(F)cc3)cc2[nH]c1=O	33
O=C(NCCN1CCCCC1)c1c(O)c2ncc(Cc3ccc(F)cc3)cc2[nH]c1=O	172
Cn1c(=O)c(C(=O)NCCCN2CCCC2)c(O)c2ncc(Cc3ccc(F)cc3)cc21	34
CC(C)OCCCNC(=O)c1c(O)c2ncc(Cc3ccc(F)cc3)cc2[nH]c1=O	190
C[C@@H](O)CNC(=O)c1c(O)c2ncc(Cc3ccc(F)cc3)cc2[nH]c1=O	282
C[C@H](O)CNC(=O)c1c(O)c2ncc(Cc3ccc(F)cc3)cc2n(C)c1=O	110
O=C(NCCO)c1c(O)c2ncc(Cc3ccc(F)cc3)cc2[nH]c1=O	51
CC(C)(CO)CNC(=O)c1c(O)c2ncc(Cc3ccc(F)cc3)cc2[nH]c1=O	41
CN(CCNC(=O)c1c(O)c2ncc(Cc3ccc(F)cc3)cc2n(C)c1=O)S(C)(=O)=O	7
O=C(NCCCN1CCCC1)c1c(O)c2ncc(Cc3ccc(F)cc3)cc2[nH]c1=O	109

tested on: not listed separately; assay: Plasma clearance in CD rat at 1 mg/kg, iv and 5 mg/kg, po; format: ADME, organism-based; details: not given

clearance [mL/min/kg]	Compound
3.2	Cn1c(=O)c(C(=O)NCCO)c(O)c2ncc(Cc3ccc(F)cc3)cc21 [GSK-364735]

tested on: not listed separately; assay: Ratio of plasma concentration in CD rat at 1 mg/kg, iv and 5 mg/kg, po after 24 hrs to IC50 for HIV in presence of 40 mg/mL of purified human serum albumin; format: ADME, organism-based; details: in vivo

Ratio	Compound
0.1	COCCNC(=O)c1c(O)c2ncc(Cc3ccc(F)cc3)cc2[nH]c1=O
0.3	Cn1c(=O)c(C(=O)NCCO)c(O)c2ncc(Cc3ccc(F)cc3)cc21 [GSK-364735]

More lines, now with the values behind:

Compound	Ratio
C[C@H](CO)NC(=O)c1c(O)c2ncc(Cc3ccc(F)cc3)cc2[nH]c1=O	0
O=C(NCCO)c1c(O)c2ncc(Cc3ccc(F)cc3)cc2[nH]c1=O	0.8
CN(CCNC(=O)c1c(O)c2ncc(Cc3ccc(F)cc3)cc2n(C)c1=O)S(C)(=O)=O	1.7

tested on: not listed separately; assay: Half life in dog at 1 mg/kg, iv and 5 mg/kg, po; format: ADME, organism-based, Canis lupus familiaris; details: in vivo

half-life [h]	Compound
1.6	CNC(=O)c1c(O)c2ncc(Cc3ccc(F)cc3)cc2n(C)c1=O

tested on: Human immunodeficiency virus; assay: Antiviral activity against HIV; format: functional, organism-based; details: Human immunodeficiency virus 1

IC50 [nM]	Compound
1	Cn1c(=O)c(C(=O)NCCCO)c(O)c2ncc(Cc3ccc(F)cc3)cc21
5	COCCNC(=O)c1c(O)c2ncc(Cc3ccc(F)cc3)cc2[nH]c1=O
7	C[C@H](O)CNC(=O)c1c(O)c2ncc(Cc3ccc(F)cc3)cc2[nH]c1=O
5	CSCCNC(=O)c1c(O)c2ncc(Cc3ccc(F)cc3)cc2[nH]c1=O
3	Cn1c(=O)c(C(=O)NC2(CO)CCCC2)c(O)c2ncc(Cc3ccc(F)cc3)cc21
4	O=C(NCCCO)c1c(O)c2ncc(Cc3ccc(F)cc3)cc2[nH]c1=O
2	Cn1c(=O)c(C(=O)NCCO)c(O)c2ncc(Cc3ccc(F)cc3)cc21 [GSK-364735]
9	CN(CCNC(=O)c1c(O)c2ncc(Cc3ccc(F)cc3)cc2[nH]c1=O)S(C)(=O)=O
6	O=C(NCCCN1CCOCC1)c1c(O)c2ncc(Cc3ccc(F)cc3)cc2[nH]c1=O
1	CNC(=O)c1c(O)c2ncc(Cc3ccc(F)cc3)cc2n(C)c1=O

The remaining lines, values behind:

Compound	IC50 [nM]
C[C@H](CO)NC(=O)c1c(O)c2ncc(Cc3ccc(F)cc3)cc2[nH]c1=O	7
O=C(NCCN1CCCCC1)c1c(O)c2ncc(Cc3ccc(F)cc3)cc2[nH]c1=O	38
Cn1c(=O)c(C(=O)NCCCN2CCCC2)c(O)c2ncc(Cc3ccc(F)cc3)cc21	9
CC(C)OCCCNC(=O)c1c(O)c2ncc(Cc3ccc(F)cc3)cc2[nH]c1=O	8
C[C@@H](O)CNC(=O)c1c(O)c2ncc(Cc3ccc(F)cc3)cc2[nH]c1=O	7
C[C@H](O)CNC(=O)c1c(O)c2ncc(Cc3ccc(F)cc3)cc2n(C)c1=O	2
O=C(NCCO)c1c(O)c2ncc(Cc3ccc(F)cc3)cc2[nH]c1=O	6
CC(C)(CO)CNC(=O)c1c(O)c2ncc(Cc3ccc(F)cc3)cc2[nH]c1=O	4
CN(CCNC(=O)c1c(O)c2ncc(Cc3ccc(F)cc3)cc2n(C)c1=O)S(C)(=O)=O	1
O=C(NCCCN1CCCC1)c1c(O)c2ncc(Cc3ccc(F)cc3)cc2[nH]c1=O	39

tested on: not listed separately; assay: Plasma clearance in dog at 1 mg/kg, iv and 5 mg/kg, po; format: ADME, organism-based, Canis lupus familiaris; details: not given

clearance [mL/min/kg]	Compound
8.6	CNC(=O)c1c(O)c2ncc(Cc3ccc(F)cc3)cc2n(C)c1=O

tested on: not listed separately; assay: Therapeutic index, ratio of cytotoxicity against human MT4 cells to antiviral activity against HIV; format: cell-based; details: read-out: TI

Compound	selectivity ratio
C[C@H](CO)NC(=O)c1c(O)c2ncc(Cc3ccc(F)cc3)cc2[nH]c1=O	> 400
O=C(NCCO)c1c(O)c2ncc(Cc3ccc(F)cc3)cc2[nH]c1=O	> 250
CN(CCNC(=O)c1c(O)c2ncc(Cc3ccc(F)cc3)cc2n(C)c1=O)S(C)(=O)=O	> 7200
Cn1c(=O)c(C(=O)NCCO)c(O)c2ncc(Cc3ccc(F)cc3)cc21 [GSK-364735]	> 2000

tested on: not listed separately; assay: AUC in CD rat at 5 mg/kg, po; format: ADME, organism-based; set-up: dose 5 mg/kg, route oral; details: plasma

AUC [ng·h/mL]	Compound
1650	COCCNC(=O)c1c(O)c2ncc(Cc3ccc(F)cc3)cc2[nH]c1=O
22800	Cn1c(=O)c(C(=O)NCCO)c(O)c2ncc(Cc3ccc(F)cc3)cc21 [GSK-364735]

The next lines start with the molecule.

Compound	AUC [ng·h/mL]
C[C@H](CO)NC(=O)c1c(O)c2ncc(Cc3ccc(F)cc3)cc2[nH]c1=O	6370
O=C(NCCO)c1c(O)c2ncc(Cc3ccc(F)cc3)cc2[nH]c1=O	3060
CN(CCNC(=O)c1c(O)c2ncc(Cc3ccc(F)cc3)cc2n(C)c1=O)S(C)(=O)=O	5810

target: Human immunodeficiency virus type 1 integrase (Human immunodeficiency virus 1, UniProt Q7ZJM1); assay: Inhibition of HIV1 integrase strand transfer activity; details: not given
Sequence (Q7ZJM1 whole entry): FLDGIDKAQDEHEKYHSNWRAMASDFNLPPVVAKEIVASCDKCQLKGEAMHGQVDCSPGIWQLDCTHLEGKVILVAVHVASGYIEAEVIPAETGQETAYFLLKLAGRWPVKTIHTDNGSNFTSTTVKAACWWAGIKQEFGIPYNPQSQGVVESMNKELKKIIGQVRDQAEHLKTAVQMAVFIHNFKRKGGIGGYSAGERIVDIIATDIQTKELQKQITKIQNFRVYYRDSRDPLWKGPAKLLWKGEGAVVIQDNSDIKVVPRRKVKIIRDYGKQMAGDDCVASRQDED

IC50 [nM]	Compound
5	Cn1c(=O)c(C(=O)NCCCO)c(O)c2ncc(Cc3ccc(F)cc3)cc21
5	COCCNC(=O)c1c(O)c2ncc(Cc3ccc(F)cc3)cc2[nH]c1=O
3	C[C@H](O)CNC(=O)c1c(O)c2ncc(Cc3ccc(F)cc3)cc2[nH]c1=O
5	CSCCNC(=O)c1c(O)c2ncc(Cc3ccc(F)cc3)cc2[nH]c1=O
7	Cn1c(=O)c(C(=O)NC2(CO)CCCC2)c(O)c2ncc(Cc3ccc(F)cc3)cc21
11	O=C(NCCCO)c1c(O)c2ncc(Cc3ccc(F)cc3)cc2[nH]c1=O
8	Cn1c(=O)c(C(=O)NCCO)c(O)c2ncc(Cc3ccc(F)cc3)cc21 [GSK-364735]
4	CN(CCNC(=O)c1c(O)c2ncc(Cc3ccc(F)cc3)cc2[nH]c1=O)S(C)(=O)=O
8	O=C(NCCCN1CCOCC1)c1c(O)c2ncc(Cc3ccc(F)cc3)cc2[nH]c1=O
4	CNC(=O)c1c(O)c2ncc(Cc3ccc(F)cc3)cc2n(C)c1=O

The next lines start with the molecule.

Compound	IC50 [nM]
C[C@H](CO)NC(=O)c1c(O)c2ncc(Cc3ccc(F)cc3)cc2[nH]c1=O	5
O=C(NCCN1CCCCC1)c1c(O)c2ncc(Cc3ccc(F)cc3)cc2[nH]c1=O	14
Cn1c(=O)c(C(=O)NCCCN2CCCC2)c(O)c2ncc(Cc3ccc(F)cc3)cc21	6
CC(C)OCCCNC(=O)c1c(O)c2ncc(Cc3ccc(F)cc3)cc2[nH]c1=O	9
C[C@@H](O)CNC(=O)c1c(O)c2ncc(Cc3ccc(F)cc3)cc2[nH]c1=O	6
C[C@H](O)CNC(=O)c1c(O)c2ncc(Cc3ccc(F)cc3)cc2n(C)c1=O	2
O=C(NCCO)c1c(O)c2ncc(Cc3ccc(F)cc3)cc2[nH]c1=O	5
CC(C)(CO)CNC(=O)c1c(O)c2ncc(Cc3ccc(F)cc3)cc2[nH]c1=O	4
CN(CCNC(=O)c1c(O)c2ncc(Cc3ccc(F)cc3)cc2n(C)c1=O)S(C)(=O)=O	5
O=C(NCCCN1CCCC1)c1c(O)c2ncc(Cc3ccc(F)cc3)cc2[nH]c1=O	23

tested on: not listed separately; assay: AUC in dog at 5 mg/kg, po; format: ADME, organism-based, Canis lupus familiaris; set-up: dose 5 mg/kg, route oral; details: plasma

AUC [ng·h/mL]	Compound
13200	CNC(=O)c1c(O)c2ncc(Cc3ccc(F)cc3)cc2n(C)c1=O

tested on: not listed separately; assay: Ratio of plasma concentration in dog at 1 mg/kg, iv and 5 mg/kg, po after 24 hrs to IC50 for HIV in presence of 40 mg/mL of purified human serum albumin; format: ADME, organism-based; details: in vivo

Ratio	Compound
0.8	CNC(=O)c1c(O)c2ncc(Cc3ccc(F)cc3)cc2n(C)c1=O

tested on: not listed separately; assay: Half life in cynomolgus monkey at 1 mg/kg, iv and 5 mg/kg, po; format: ADME, organism-based, Macaca fascicularis; details: in vivo

half-life [h]	Compound
3.9	CNC(=O)c1c(O)c2ncc(Cc3ccc(F)cc3)cc2n(C)c1=O

tested on: not listed separately; assay: Ratio of plasma concentration in cynomolgus monkey at 1 mg/kg, iv and 5 mg/kg, po after 24 hrs to IC50 for HIV in presence of 40 mg/mL of purified human serum albumin; format: ADME, organism-based; details: in vivo

Ratio	Compound
9.2	CNC(=O)c1c(O)c2ncc(Cc3ccc(F)cc3)cc2n(C)c1=O

tested on: Human immunodeficiency virus; assay: Antiviral activity against HIV infected in human MT4 cells; format: functional, organism-based; details: Human immunodeficiency virus 1, MT4

IC50 [nM]	Compound
20	C[C@H](CO)NC(=O)c1c(O)c2ncc(Cc3ccc(F)cc3)cc2[nH]c1=O
80	O=C(NCCO)c1c(O)c2ncc(Cc3ccc(F)cc3)cc2[nH]c1=O
7	CN(CCNC(=O)c1c(O)c2ncc(Cc3ccc(F)cc3)cc2n(C)c1=O)S(C)(=O)=O
5	Cn1c(=O)c(C(=O)NCCO)c(O)c2ncc(Cc3ccc(F)cc3)cc21 [GSK-364735]

tested on: not listed separately; assay: AUC (0 to 24 hrs) in cynomolgus monkey at 5 mg/kg, po; format: ADME, organism-based, Macaca fascicularis; set-up: time < 24 hr, dose 5 mg/kg, route oral; details: plasma

AUC(0-t) at 24 h [ng·h/mL]	Compound
38600	CNC(=O)c1c(O)c2ncc(Cc3ccc(F)cc3)cc2n(C)c1=O

— ChEMBL document CHEMBL2311459, “Naphthyridinone (NTD) integrase inhibitors: N1 protio and methyl combination substituent effects with C3 amide groups” (Bioorg Med Chem Lett, 2013)
